Results from US20080241081A1, “AMIDE COMPOUND OR SALT THEREOF, AND BIOFILM REMOVER CONTAINING THE SAME” (priority 2006, published 2008).

What was measured:
[1] = system: biofilm formed by Pseudomonas aeruginosa (gfp expression PAO1-strain); experiment: Evaluation test for removing biofilms formed by Pseudomonas aeruginosa (flow cell system, fluorescence confocal microscope); format: cell-based; conditions: test liquid 100 μM compound; for state of deposited biofilm observed over time: flow 200 μL per minute, observed after 3, 4, 5, 6, 7 and 10 days, compared with DMSO control test liquid; for biofilm removal effect (conclusion): flow cell system, up to 10 days
Experimental: Each of the amide compounds (Compound 1a-1, 1a-2, 1b-1 and 1c-1) produced in Production Examples 1 to 4 was evaluated for its biofilm removal effect, using the flow cell system shown in FIG. 1.
A culture medium bottle (1), a peristaltic pump (2), a glass cell (4) and a waste fluid bottle (5) are connected via a silicon tube (6) so that a culture medium (9) is supplied to the glass cell from the culture medium bottle (1) using the peristaltic pump (2). The system includes an air removal section (3) between the peristaltic pump (2) and a turncock (7a), for removing the entrained air. All tools in the flow cell system are sterilized using gamma-rays or an autoclave.
As specifically described later, the effect for removing biofilms is examined in the following manner. Bacteria are cultured in a glass cell (4) to grow a biofilm on the inner wall of the cell, and a test liquid containing one of the amide compounds is applied to the biofilm. Then the condition of the biofilm is observed to evaluate the biofilm-removing effect of the compound using a fluorescence confocal microscope (Leica TCS SP2: product of Leica).
The bacteria was prepared by inserting a pTdk-LVAgfp plasmid into a Pseudomonas aeruginosa PAO1-strain using the electroportion method so that the Pseudomonas aeruginosa PAO1-strain is transformed to express Green Fluorescent Protein (hereinafter referred to as “gfp expression PAO1-strain”) (see Teresa R. et al., Applied and Environmental Microbiology, April 2001, p. 1865-1873).
A 30 mM glucose-containing FAB culture medium was used for preincubation, and a 0.3 mM glucose-containing FAB culture medium was used for main cultivation.
The glucose-containing FAB culture medium was prepared by adding 200 μg/mL of carbenicillin to an aqueous solution containing 30 mM glucose or 0.3 mM glucose, 15 mM ammonium sulfate, 33.7 mM disodium hydrogenphosphate, 22.1 mM dipotassium hydrogenphosphate, 51.7 mM sodium chloride, 0.47 mM magnesium chloride, 0.08 mM calcium chloride and the following 0.1% trace metal solution.
An aqueous solution containing 1.16 mM calcium sulfate dihydrate, 0.72 mM iron sulfate heptahydrate, 0.08 mM manganous sulfate monohydrate, 0.08 mM copper sulfate pentahydrate, 0.07 mM zinc sulfate heptahydrate, 0.04 mM cobalt sulfate heptahydrate, 0.04 mM […], and 0.08 mM boric acid.
A gfp expression PAO1-strain was inoculated in a 30 mM glucose-containing FAB culture medium, and was subjected to shake culture at 37° C. in an isothermal tank overnight. The obtained overnight culture liquid was diluted by a 30 mM glucose-containing FAB culture medium to OD590=0.1. […]

[2] = system: biofilm formed by Porphyromonas gingivalis 381-strain; experiment: Evaluation test for removing biofilms formed by periodontitis pathogenic bacteria (flow cell system, optical microscope); format: cell-based; conditions: same experiment as Experiment Example 1, Porphyromonas gingivalis 381-strain, 10 days
Experimental: The same experiment as in Experiment Example 1 was conducted except that periodontitis pathogenic bacteria Porphyromonas gingivalis 381-strain (clinical bacteria) was used in place of Pseudomonas aeruginosa PAO1-strain. […] The gradual exfoliation of the deposited biofilm from the cell wall, and the flowing flakes of biofilm exfoliation in the cell were also visually observed.

autoinducer = conditions: as taught by Patent Document 1 (JP 2006-512290); cited from earlier work

CCCCCCCCCC(=O)CC(=O)Nc1ccccc1O [Comparative Compound 1, reference compound]
state of deposited biofilm observed over time [1]: a similar biofilm formation to that of the control test using the control test liquid was observed

CCCCCCCCCC(=O)CC(=O)NN1CCCC1 [Compound 1a-1, N-(pyrrolidin-1-yl)-3-oxododecanoyl amide]
biofilm removal effect (conclusion) [1]: effective for removing deposited biofilms
state of biofilm (removal) [2]: nearly the entire biofilm was removed in 10 days

CCCCCCCCCC(=O)CC(=O)NN1CCCCC1 [Compound 1a-2, N-(piperidine-1-yl)-3-oxododecanoyl amide]
state of deposited biofilm observed over time [1]: gradual disappearance of the deposited biofilm with time was observed
biofilm removal effect (conclusion) [1]: effective for removing deposited biofilms
state of biofilm (removal) [2]: nearly the entire biofilm was removed in 10 days

CCCCCCCCCC(=O)CC(=O)NN1CCCCC1 [drawing 7]
autoinducer agonist activity (autoinducer): exhibits autoinducer agonist activity
